# What was measured:
# [1] = test system: Acinetobacter calcoaceticus; experiment: In vitro antimicrobial activity against Acinetobacter calcoaceticus 15473; format: functional
# Bacillus subtilis = experiment: In vitro antimicrobial activity against Bacillus subtilis ATCC 6633; format: functional
# Citrobacter koseri = experiment: In vitro antimicrobial activity against Citrobacter diversus 2046E; format: functional
# Escherichia coli [2] = experiment: In vitro antimicrobial activity against Escherichia coli 3190Y; format: functional
# Escherichia coli [3] = experiment: In vitro antimicrobial activity against Escherichia coli 851E; format: functional
# Escherichia coli [4] = experiment: In vitro antimicrobial activity against Escherichia coli TEM5 3739E; format: functional
# Enterobacter cloacae = experiment: In vitro antimicrobial activity against Enterobacter cloacae p99; format: functional
# Klebsiella aerogenes = experiment: In vitro antimicrobial activity against Klebsiella aerogenes 1076E; format: functional
# Micrococcus luteus = experiment: In vitro antimicrobial activity against Micrococcus luteus ATCC 9341; format: functional
# Pseudomonas aeruginosa = experiment: In vitro antimicrobial activity against Pseudomonas aeruginosa 1012E; format: functional
# Salmonella typhimurium = experiment: In vitro antimicrobial activity against Salmonella Typhimurium 14028; format: functional, Salmonella enterica subsp. enterica serovar Typhimurium; settings: Salmonella enterica
# [5] = test system: Staphylococcus epidermidis; experiment: In vitro antimicrobial activity against Staphylococcus epidermis 178; format: functional
# [6] = test system: Staphylococcus epidermidis; experiment: In vitro antimicrobial activity against Staphylococcus epidermis 887E; format: functional
# Staphylococcus aureus [7] = experiment: In vitro antimicrobial activity against Staphylococcus aureus 241; format: functional
# Staphylococcus aureus [8] = experiment: In vitro antimicrobial activity against Staphylococcus aureus 77; format: functional
# Staphylococcus aureus [9] = experiment: In vitro antimicrobial activity against Staphylococcus aureus giorgio; format: functional
# Escherichia coli [10] = experiment: In vitro antimicrobial activity against Escherichia coli 10536
# Escherichia coli [11] = experiment: In vitro antimicrobial activity against Escherichia coli 10536; format: functional
# [12] = Tmax value after administration of 20 mg/Kg oral dose in rat; format: ADME, organism-based; settings: in vivo
# [13] = Half-life after administration of 4 mg/Kg oral dose in dog; settings: in vivo
# [14] = Bioavailability in dog (dose 4 mg/kg p.o.); format: ADME, organism-based, Canis lupus familiaris; settings: in vivo, po
# [15] = Half-life after administration of 20 mg/Kg oral dose in rat; format: ADME, organism-based; settings: in vivo
# [16] = Bioavailability in rat (dose 20 mg/kg p.o.); format: ADME, organism-based; settings: in vivo, po
# [17] = Cmax value after administration of 20 mg/Kg oral dose in rat; format: ADME, organism-based; design: dose 20 mg/Kg, route oral; settings: in vivo
# [18] = AUC value after administration of 20 mg/Kg oral dose in rat; format: ADME, organism-based; settings: plasma
# Mus musculus [19] = experiment: In vivo efficacy against systemic infection of Pseudomonas aeruginosa 1912E in mouse; format: functional
# Mus musculus [20] = experiment: In vivo efficacy against systemic infection of Staphylococcus aureus giorgio in mouse; format: functional
# [21] = Tmax value after administration of 4 mg/Kg oral dose in dog; format: ADME, organism-based, Canis lupus familiaris; settings: in vivo
# in vivo [22] = settings: dog, po, 4 mg/kg
# in vivo [23] = settings: dog, po, 4 mg/kg; remark: listed apart in the source
Structure (SMILES),MIC [1],MIC (Bacillus subtilis),MIC (Citrobacter koseri),MIC (Escherichia coli [2]),MIC (Escherichia coli [3]),MIC (Escherichia coli [4]),MIC (Enterobacter cloacae),MIC (Klebsiella aerogenes),MIC (Micrococcus luteus),MIC (Pseudomonas aeruginosa),MIC (Salmonella typhimurium),MIC [5],MIC [6],MIC (Staphylococcus aureus [7]),MIC (Staphylococcus aureus [8]),MIC (Staphylococcus aureus [9]),MIC (Escherichia coli [11]),further results
CO/N=C1/CN(c2c(F)cc3c(=O)c(C(=O)O)cn(C4CC4)c3c2Cl)CC1N (stereo not drawn),0.031 µg/mL,≤ 0.008 µg/mL,0.063 µg/mL,≤ 0.008 µg/mL,0.031 µg/mL,0.25 µg/mL,0.016 µg/mL,0.25 µg/mL,0.13 µg/mL,2 µg/mL,0.13 µg/mL,0.5 µg/mL,0.016 µg/mL,0.5 µg/mL,0.016 µg/mL,0.016 µg/mL,,MIC (Escherichia coli [10]): 0.016 µg/mL
CO/N=C1\CN(c2c(F)c(N)c3c(=O)c(C(=O)O)cn(C4CC4)c3c2F)CC1N (stereo not drawn),0.031 µg/mL,≤ 0.008 µg/mL,0.063 µg/mL,≤ 0.008 µg/mL,0.031 µg/mL,0.13 µg/mL,≤ 0.008 µg/mL,0.25 µg/mL,0.5 µg/mL,1 µg/mL,0.063 µg/mL,2 µg/mL,0.016 µg/mL,2 µg/mL,0.031 µg/mL,≤ 0.008 µg/mL,≤ 0.008 µg/mL,
CO/N=C1\CN(c2nc3c(cc2F)c(=O)c(C(=O)O)cn3C2CC2)CC1N (stereo not drawn),0.063 µg/mL,≤ 0.008 µg/mL,0.063 µg/mL,≤ 0.008 µg/mL,0.063 µg/mL,1 µg/mL,0.016 µg/mL,0.25 µg/mL,1 µg/mL,2 µg/mL,0.13 µg/mL,8 µg/mL,0.063 µg/mL,8 µg/mL,0.063 µg/mL,0.063 µg/mL,≤ 0.008 µg/mL,
C=CCO/N=C1\CN(c2c(F)cc3c(=O)c(C(=O)O)cn(C4CC4)c3c2F)CC1N (stereo not drawn),0.031 µg/mL,≤ 0.008 µg/mL,0.13 µg/mL,≤ 0.008 µg/mL,0.063 µg/mL,0.5 µg/mL,0.031 µg/mL,0.25 µg/mL,0.25 µg/mL,2 µg/mL,0.25 µg/mL,2 µg/mL,0.016 µg/mL,2 µg/mL,0.031 µg/mL,0.016 µg/mL,0.031 µg/mL,
CNC1CN(c2nc3c(cc2F)c(=O)c(C(=O)O)cn3C2CC2)C/C1=N\OC (stereo not drawn),0.13 µg/mL,≤ 0.008 µg/mL,0.13 µg/mL,≤ 0.008 µg/mL,0.063 µg/mL,1 µg/mL,≤ 0.008 µg/mL,0.5 µg/mL,2 µg/mL,4 µg/mL,0.25 µg/mL,32 µg/mL,0.063 µg/mL,16 µg/mL,0.063 µg/mL,0.031 µg/mL,≤ 0.008 µg/mL,
NC1CN(c2c(F)cc3c(=O)c(C(=O)O)cn(C4CC4)c3c2F)C/C1=N\OCCF (stereo not drawn),0.13 µg/mL,0.016 µg/mL,0.13 µg/mL,0.016 µg/mL,0.031 µg/mL,0.25 µg/mL,0.016 µg/mL,0.25 µg/mL,0.25 µg/mL,2 µg/mL,0.13 µg/mL,2 µg/mL,0.063 µg/mL,2 µg/mL,0.063 µg/mL,0.031 µg/mL,0.031 µg/mL,
CO/N=C1\CN(c2c(F)cc3c(=O)c(C(=O)O)cn(C4CC4)c3c2F)CC1N (stereo not drawn),0.016 µg/mL,≤ 0.008 µg/mL,0.063 µg/mL,≤ 0.008 µg/mL,0.031 µg/mL,0.25 µg/mL,≤ 0.008 µg/mL,0.13 µg/mL,0.13 µg/mL,1 µg/mL,0.063 µg/mL,2 µg/mL,0.016 µg/mL,2 µg/mL,0.016 µg/mL,≤ 0.008 µg/mL,≤ 0.008 µg/mL,Tmax [12]: 10.8 min; half-life [13]: 140 min; bioavailability [14]: > 100%; half-life [15]: 311 min; bioavailability [16]: > 100%; Cmax [17]: 22800 ng/mL; AUC [18]: 179000 ng·h/mL; ED50 (Mus musculus [19]): 9.69 mg/kg; ED50 (Mus musculus [20]): 0.87 mg/kg; Tmax [21]: 13.8 min; Cmax (in vivo [22]): 3440 ng/mL; AUC (in vivo [23]; plasma): 12900 ng·h/mL
CO/N=C1/CN(c2cc3c(cc2F)c(=O)c(C(=O)O)cn3C2CC2)CC1N (stereo not drawn),0.031 µg/mL,≤ 0.008 µg/mL,0.031 µg/mL,≤ 0.008 µg/mL,0.031 µg/mL,0.5 µg/mL,≤ 0.008 µg/mL,0.25 µg/mL,0.25 µg/mL,1 µg/mL,0.13 µg/mL,16 µg/mL,0.031 µg/mL,32 µg/mL,0.031 µg/mL,0.016 µg/mL,0.016 µg/mL,
NC1CN(c2c(F)cc3c(=O)c(C(=O)O)cn(C4CC4)c3c2F)C/C1=N\O (stereo not drawn),0.5 µg/mL,0.063 µg/mL,0.13 µg/mL,≤ 0.008 µg/mL,0.031 µg/mL,0.5 µg/mL,0.031 µg/mL,0.5 µg/mL,0.25 µg/mL,1 µg/mL,0.63 µg/mL,64 µg/mL,0.13 µg/mL,32 µg/mL,0.063 µg/mL,0.063 µg/mL,0.016 µg/mL,
O=C(O)c1cn(C2CC2)c2cc(N3CCNCC3)c(F)cc2c1=O [CIPROFLOXACIN],0.25 µg/mL,0.031 µg/mL,0.016 µg/mL,≤ 0.008 µg/mL,,0.13 µg/mL,,0.13 µg/mL,4 µg/mL,0.13 µg/mL,0.031 µg/mL,128 µg/mL,0.13 µg/mL,128 µg/mL,0.25 µg/mL,0.25 µg/mL,≤ 0.008 µg/mL,Tmax [12]: 6.6 min; Cmax [17]: 900 ng/mL; AUC [18]: 2590 ng·h/mL; ED50 (Mus musculus [19]): 3.11 mg/kg; ED50 (Mus musculus [20]): 7.46 mg/kg; Tmax [21]: 67.2 min; Cmax (in vivo [22]): 910 ng/mL; AUC (in vivo [23]; in vivo): 4540 ng·h/mL

# Reference: ChEMBL document CHEMBL1130731, “Methyloxime-substituted aminopyrrolidine: a new surrogate for 7-basic group of quinolone” (Bioorg Med Chem Lett, 1998)
